Measured values from patent US7169785B2, “Methods and compositions of novel triazine compounds” (Reddy US Therapeutics, Inc., priority 2001, dated 2007).
Like-named read-outs stand apart in the source and are kept apart here.

How the values were obtained:
[1] = test system: Human aortic smooth muscle cells; experiment: Smooth muscle cell proliferation assay (anti-proliferation assay, perlecan); format: cell-based; conditions: concentration not given
[2] = test system: IL6; experiment: Inflammation Data of Table 8: IL6 production compared to cells that did not receive compound (stimulus AGE or TNF not given); format: cell-based
Description: Additional bioactivity data for compounds of the present invention are presented in Table 8, where compounds that have at least the activity of effecting cellular proliferation or at least the activity of modulating inflammation activity, as measured by the assays taught herein, are provided. […] The inclusion of compounds in the categories of the Tables disclosed herein, including this Table, is not to be seen as limiting, in that compounds included in such Tables have at least the activity shown for inclusion in the Table and may have more or other activities. Nor are the Tables to be seen as limiting in that these are the only compounds disclosed herein that have that activity, representative compounds are shown in the Tables that have at least that particular activity for inclusion in the Table. One or more compounds disclosed herein have at least an activity that has utility in treatment of disease states. Note that any hydrogen atoms that are required for any atom to attain its usual valence in a structure presented in Table 8, whether a carbon atom or a heteroatom, should be inferred if it is not specifically indicated.

[3] = test system: cells; experiment: Cytotoxicity / lactate dehydrogenase assay and visual observation of cells; format: cell-based
Experimental: Assays for determining the activity of compounds capable of cytotoxic activity include those taught in herein and others that are well known in the art. In general, to determine if there is cytotoxic activity associated with a compound, cells of a particular type, in a growing stage or a quiescient stage, are treated with the compound of interest. Various parameters of cell death or cessation are used to measure the effects of the compound. For example, the amount of nucleic acid or protein synthesis can be measured or visual observation of the state of the cells, such as release from the substrate, can be used to measure the state of the cells.
An appropriate number of cells are plated in four 96-well plates, one plate for “day 0” and three plates for days 1–3. Cells are treated with at least one compound of the present invention in varying concentrations with and without the apoptosis inducer cisplatin (2 μM) (“+cis” or “−cis”). Unteated cells are also assayed with and without cisplatin. After transfection, the plates are incubated at 37° C. overnight.
An appropriate number of cells are plated in four 96-well plates, one plate for “day 0” and three plates for days 1–3. Cells are treated with at least one compound of the present invention in varying concentrations. The negative control cells have normal media conditions, a duplicate set of wells is treated with the composition in which the compound is provided, but there is no added compound and the positive control cells are treated with the apoptosis inducer cisplatin (2 μM). All of the cells are transfected with a vector having a promoter that is responsive to apoptosis conditions. When apoptosis occurs, the promoter is turned on and the lactic dehydrogenase gene is activated and the enzyme protein is made and active. Activity is easily detected with a color change. After transfection, the plates are incubated at 37° C. overnight.
About 8 mls of warmed alpha MEM LDH lysis buffer (2% Triton X100) and about 8 mls of culture media (½ dilution) are combined. Two 96-well v-bottom plates are prepared, one labeled “lysis” and one labeled “supernatant.” To lyse the cells, about 200 μl Alpha MEM lysis buffer (diluted ½) is added to one test plate from which the supernatant has been removed and added to the plate labeled supernatant. After mixing, about 200 μl of lysed cells are transferred to the lysis plate. Both the lysis and supernatant plates are centrifuged at about 1600 rpm for about 10 min. After centrifugation, about 100 μl of both the supernatant or lysate is transferred to corresponding 96-well flat-bottomed plates.
The assay for cytotoxicity uses the Cytotoxicity Detection Kit (LDH) from Roche Diagnostics Corp. (Indianapolis, Ind.). Using the directionts provided, the dye solution is mixed and added each well of the lysate and supernatant plate and incubated for up to 20–25 min at 15–25° C. in the dark.

[4] = test system: IL-6; experiment: AGE (G-HSA)-induced inflammatory response determined by IL-6 ELISA in HAEC; format: cell-based, human; conditions: Homo sapiens; for activity at 10 µM: 24 h, Compds tested @ 10 uM, IL6, read-out: % IL6 production compare to AGE stimulation of IL6 (100%)
Experimental: Human aortic endothelial cells (HAEC, Clonetics) were cultured according to manufacturer in growth medium (Clonetics): basal medium containing human epidermal growth factor, hydrocortisone, vascular endothelial growth factor, heparin binding growth factor-B, long R3-insulin-like growth factor-1, ascorbic acid, gentamicin/amphotericin and 5% FBS. These cell were allowed to reach at least 90% confluency before subjected to experimental treatments. […] Tumor necrosis factor α was from R&D Systems.
All treatments, compound-added and controls were carried out in serum free media containing 0.2% albumin. Media from all conditions were collected and used for IL-6 ELISA.
IL-6 ELISA was carried out using human IL-6 DuoSet ELISA development kit as described by manufacturer (R&D Systems). Mouse anti-human Il-6 was used as the capture antibody (2 ug/ml) and biotinylated goat anti-human IL-6 (200 ng/ml) was used as the detection antibody. Culture media were incubated with capture antibody (in 96 well) for 2 h at room temperature. Wells were washed three times with wash buffer (0.05% tween-20 in phosphate buffered saline (PBS) pH 7.4) followed by incubation with detection antibody for 2 h at room temperature. Following three washes wells were incubated with Streptavidin-HRP for 20 min. Color development was read at 450 nm in a Microplate reader.

[5] = test system: IL-6; experiment: TNF-α-induced IL-6 production determined by IL-6 ELISA in HAEC; format: cell-based, human; conditions: Homo sapiens, 24 h; Compds tested @ 10 uM; HAEC, IL6; read-out: % IL6 production compare to TNF stimulation of IL6 (100%)

For COc1ccc(Nc2nc(NC3CCCCCC3)nc(OCCOc3ccccc3F)n2)cc1Cl, the “Proliferation Data (result in words)” value [1] was “Not active” and the “Inflammation Data (result in words)” value ([2]; concentration not given) was “Not active”.

In the case of COc1ccc(Nc2nc(NC3CCCCCC3)nc(OCc3cccc(C)n3)n2)cc1Cl, the “Proliferation Data (result in words)” value [1] is reported as “Not active” and the inhibition at 10 µM [2] is reported as 60%.

For Oc1ccc(Nc2nc(Cl)nc(Cl)n2)cc1Cl, the “Proliferation Data (result in words)” value [1] was “Not active” and the inhibition at 10 µM [2] was 35%.

With Oc1ccc(Nc2nc(Cl)nc(NC3CCCCCC3)n2)cc1Cl the “Proliferation Data (result in words)” value [1] was “Not active”, the inhibition at 5 µM [2] was 25% and the inhibition at 10 µM [2] was 25%.

For COc1ccc(Nc2nc(Cl)nc(NC3CC3)n2)cc1F, the “Proliferation Data (result in words)” value [1] was “Not active” and the inhibition at 10 µM [2] was 36%.

COc1ccc(Nc2nc(NC3CC3)nc(N(C)C3CCN(C)CC3)n2)cc1F was tested, and the “Proliferation Data (result in words)” value [1] was “Not active” and the inhibition at 10 µM [2] was 25%.

In the case of CCN1CCCC1CNc1nc(Nc2ccc(OC)c(F)c2)nc(NC2CC2)n1 (stereo not shown), the “Proliferation Data (result in words)” value [1] is reported as “Not active” and the inhibition at 10 µM [2] is reported as 23%.

With COc1ccc(Nc2nc(NC3CC3)nc(N(C)C3CCN(C)CC3)n2)cc1Cl the “cell death under Inflammation Data” value ([3]; 10 uM) was 15%.

In the case of CCN1CCCC1CNc1nc(Nc2ccc(OC)c(F)c2)nc(Nc2ccc(OC)c(F)c2)n1 (stereo not shown), the inhibition at 5 µM [2] is reported as 25% and the inhibition at 10 µM [2] is reported as 35%.

In the case of CCN1CCCC1CNc1nc(Nc2cnc3ccccc3c2)nc(NC2CCCCCC2)n1 (stereo not shown) [Compound 3, N^2-cycloheptyl-N^4-[(1-ethyl-2-pyrrolidinyl)methyl]-N^6-(3-quinolinyl)-1,3,5-triazine-2,4,6-triamine], the activity at 10 µM [4] is reported as 1% and the Toxicity ([3]; toxic or cause cell death) is reported as “toxic”.

With CCN1CCCC1CNc1nc(Nc2cccc3cccnc23)nc(NC2CCCCCC2)n1 (stereo not shown) [Compound 5, N^2-cycloheptyl-N^4-[(1-ethyl-2-pyrrolidinyl)methyl]-N^6-(8-quinolinyl)-1,3,5-triazine-2,4,6-triamine] the Toxicity ([3]; toxic or cause cell death) was “toxic”.

For CCN1CCCC1CNc1nc(Nc2ccc(Cl)c(Cl)c2)nc(NC2CCCCCC2)n1 (stereo not shown) [Compound 7, N^2-cycloheptyl-N^4-(3,4-dichlorophenyl)-N^6-[(1-ethyl-2-pyrrolidinyl)methyl]-1,3,5-triazine-2,4,6-triamine], the Toxicity ([3]; toxic or cause cell death) was “toxic”.

With CCN1CCCC1CNc1nc(Nc2ccc(F)c(F)c2)nc(NC2CCCCCC2)n1 (stereo not shown) [Compound 8, N^2-cycloheptyl-N^4-(3,4-difluorophenyl)-N^6-[(1-ethyl-2-pyrrolidinyl)methyl]-1,3,5-triazine-2,4,6-triamine] the Toxicity ([3]; toxic or cause cell death) was “toxic”.

CCN1CCCC1CNc1nc(Nc2ccc(OC(F)(F)F)cc2)nc(NC2CCCCCC2)n1 (stereo not shown) [Compound 9, N^2-cycloheptyl-N^4-[(1-ethyl-2-pyrrolidinyl)methyl]-N^6-[4-(trifluoromethoxy)phenyl]-1,3,5-triazine-2,4,6-triamine] was tested, and the Toxicity ([3]; toxic or cause cell death) was “toxic”.

For CCN1CCCC1CNc1nc(Nc2ccc(Cl)cc2)nc(NC2CCCCCC2)n1 (stereo not shown) [Compound 12, N^2-(4-chlorophenyl)-N^4-cycloheptyl-N^6-[(1-ethyl-2-pyrrolidinyl)methyl]-1,3,5-triazine-2,4,6-triamine], the Toxicity ([3]; toxic or cause cell death) was “toxic”.

In the case of CCN1CCCC1CNc1nc(Nc2ccc(Br)cc2)nc(NC2CCCCCC2)n1 (stereo not shown) [Compound 13, N^2-(4-bromophenyl)-N^4-cycloheptyl-N^6-[(1-ethyl-2-pyrrolidinyl)methyl]-1,3,5-triazine-2,4,6-triamine], the Toxicity ([3]; toxic or cause cell death) is reported as “toxic”.

For CCOC(=O)c1ccc(Nc2nc(NCC3CCCN3CC)nc(NC3CCCCCC3)n2)cc1 (stereo not shown) [Compound 14, Ethyl 4-[(4-(cycloheptylamino)-6-{[(1-ethyl-2-pyrrolidinyl)methyl]amino}-1,3,5-triazin-2-yl)-amino]benzoate], the Toxicity ([3]; toxic or cause cell death) was “toxic”.

For CCN1CCCC1CNc1nc(Nc2cccc(F)c2)nc(NC2CCCCCC2)n1 (stereo not shown) [Compound 16, N^2-cycloheptyl-N^4-[(1-ethyl-2-pyrrolidinyl)methyl]-N^6-(3-fluorophenyl)-1,3,5-triazine-2,4,6-triamine], the Toxicity ([3]; toxic or cause cell death) was “toxic”.

CCN1CCCC1CNc1nc(Nc2ccccc2Cl)nc(NC2CCCCCC2)n1 (stereo not shown) [Compound 21, N^2-(2-chlorophenyl)-N^4-cycloheptyl-N^6-[(1-ethyl-2-pyrrolidinyl)methyl]-1,3,5-triazine-2,4,6-triamine] was tested, and the Toxicity ([3]; toxic or cause cell death) was “toxic”.

In the case of CCN1CCCC1CNc1nc(Nc2ccccc2Br)nc(NC2CCCCCC2)n1 (stereo not shown) [Compound 22, N^2-(2-bromophenyl)-N^4-cycloheptyl-N^6-[(1-ethyl-2-pyrrolidinyl)methyl]-1,3,5-triazine-2,4,6-triamine], the Toxicity ([3]; toxic or cause cell death) is reported as “toxic”.

In the case of CCN1CCCC1CNc1nc(Nc2ccc(Oc3ccccc3)cc2)nc(NC2CCCCCC2)n1 (stereo not shown) [Compound 36, N^2-cycloheptyl-N^4-[(1-ethyl-2-pyrrolidinyl)methyl]-N^6-(4-phenoxyphenyl)-1,3,5-triazine-2,4,6-triamine], the Toxicity ([3]; toxic or cause cell death) is reported as “toxic”.

With CCN1CCCC1CNc1nc(NC2CCCCCC2)nc(N(C)c2ccc(OC(F)(F)F)cc2)n1 (stereo not shown) [Compound 47, N^2-cycloheptyl-N^4-[(1-ethyl-2-pyrrolidinyl)methyl]-N^6-methyl-N^6-[4-(trifluoromethoxy)phenyl]-1,3,5-triazine-2,4,6-triamine] the Toxicity ([3]; toxic or cause cell death) was “toxic”.

In the case of CCN1CCCC1CNc1nc(Nc2ccc(OC)c(F)c2)nc(NC2CCCCCCC2)n1 (stereo not shown) [Compound 54, N^2-cyclooctyl-N^4-[(1-ethyl-2-pyrrolidinyl)methyl]-N^6-(3-fluoro-4-methoxyphenyl)-1,3,5-triazine-2,4,6-triamine], the Toxicity ([3]; toxic or cause cell death) is reported as “toxic”.

In the case of CCN1CCCC1CNc1nc(Nc2ccc(OC)c(F)c2)nc(N2CCCC3CCCCC32)n1 (stereo not shown) [Compound 59, N^2-[(1-ethyl-2-pyrrolidinyl)methyl]-N^4-(3-fluoro-4-methoxyphenyl)-N^6-octahydro-1(2H)-quinolinyl-1,3,5-triazine-2,4-diamine], the Toxicity ([3]; toxic or cause cell death) is reported as “toxic”.

Work on COc1ccc(Nc2nc(NCCN(C)C)nc(NC3CCCCCC3)n2)cc1F [Compound 93, N^2-cycloheptyl-N^4-[2-(dimethylamino)ethyl]-N^6-(3-fluoro-4-methoxyphenyl)-1,3,5-triazine-2,4,6-triamine] yielded an activity at 10 µM [4] of 6%, an IC50 ([4]; IL6, unit inferred, read-out: IC50 (AGE stimulation of IL6)) of 3.36 µM and an activity at 10 µM [5] of 13%. For the same molecule, the Toxicity ([3]; toxic or cause cell death) was “toxic”.

In the case of COc1ccc(Nc2nc(OCC3CCCCC3)nc(N(C)C3CCN(C)CC3)n2)cc1Cl [Compound 119, N-(3-Chloro-4-methoxy-phenyl)-6-cyclohexylmethoxy-N′-methyl-N′-(1-methyl-piperidin-4-yl)-[1,3,5]triazine-2,4-diamine], the Toxicity [3] is reported as “toxic”.

CCN1CCCC1CNc1nc(Nc2ccc(OC)c(Cl)c2)nc(NC2CCCCCC2)n1 (stereo not shown) [Compound 136, N^2-(3-chloro-4-methoxy-phenyl)-N^4-cycloheptyl-N^6-(1-ethyl-pyrrolidin-2-ylmethyl)-1,3,5-triazine-2,4,6-triamine] was tested, and the Toxicity ([3]; at 3 uM, very toxic) was “Nothing but celldebris at 3 uM verytoxic”.
